Assay results as given in PubChem BioAssay (NCI).
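Where inhibition never reached the appropriate level, the endpoint shown equals the highest concentration tested. Otherwise, values were interpolated linearly from a five-concentration, 48-hour dose response in 96-well plates. GI50 marks 50% less growth. TGI marks complete inhibition of growth.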 Where a SMILES comes first, the peptide text is derived from it. [ ]: non-standard residue; d: D form. Phe(4-Cl) = N[CH](Cc1ccc(Cl)cc1)C(=O)O; 2Nal = N[CH](Cc1ccc2ccccc2c1)C(=O)O; 3Pal = N[CH](Cc1cccnc1)C(=O)O

Assays:
Assay in all cases: DTP human tumour cell line panel, 48 h
BT-549 breast = test system: BT-549 breast
UACC-257 melanoma = test system: UACC-257 melanoma
HOP-92 NSCLC = test system: HOP-92 NSCLC
NCI-H23 lung = test system: NCI-H23 lung
NCI-H226 lung = test system: NCI-H226 lung
CCRF-CEM leukemia = test system: CCRF-CEM leukemia
OVCAR-8 ovarian = test system: OVCAR-8 ovarian
SK-MEL-5 melanoma = test system: SK-MEL-5 melanoma
K-562 leukemia = test system: K-562 leukemia
MOLT-4 leukemia = test system: MOLT-4 leukemia
NCI/ADR-RES ovarian = test system: NCI/ADR-RES ovarian
MDA-MB-435 = test system: MDA-MB-435
OVCAR-4 ovarian = test system: OVCAR-4 ovarian
HL-60(TB) leukemia = test system: HL-60(TB) leukemia
RPMI-8226 leukemia = test system: RPMI-8226 leukemia
UACC-62 melanoma = test system: UACC-62 melanoma
TK-10 renal = test system: TK-10 renal
SK-MEL-2 melanoma = test system: SK-MEL-2 melanoma
786-0 renal = test system: 786-0 renal
RXF 393 renal = test system: RXF 393 renal
UO-31 renal = test system: UO-31 renal
SK-OV-3 ovarian = test system: SK-OV-3 ovarian
U251 CNS = test system: U251 CNS
SK-MEL-28 melanoma = test system: SK-MEL-28 melanoma
SNB-75 CNS = test system: SNB-75 CNS
SF-295 CNS = test system: SF-295 CNS
SN12C renal = test system: SN12C renal
OVCAR-5 ovarian = test system: OVCAR-5 ovarian
MDA-MB-231 breast = test system: MDA-MB-231 breast
M14 melanoma = test system: M14 melanoma
MCF7 breast = test system: MCF7 breast
A498 renal = test system: A498 renal
SF-268 CNS = test system: SF-268 CNS
HOP-62 NSCLC = test system: HOP-62 NSCLC
SW-620 colon = test system: SW-620 colon
LOX IMVI melanoma = test system: LOX IMVI melanoma
T-47D breast = test system: T-47D breast
COLO 205 colon = test system: COLO 205 colon
KM12 colon = test system: KM12 colon
SR leukemia = test system: SR leukemia
HCT-15 colon = test system: HCT-15 colon
SF-539 CNS = test system: SF-539 CNS
HCT-116 colon = test system: HCT-116 colon
HT29 colon = test system: HT29 colon
OVCAR-3 ovarian = test system: OVCAR-3 ovarian
MALME-3M melanoma = test system: MALME-3M melanoma
A549 NSCLC = test system: A549 NSCLC
NCI-H460 lung = test system: NCI-H460 lung
ACHN renal = test system: ACHN renal
IGROV1 ovarian = test system: IGROV1 ovarian
DU-145 prostate = test system: DU-145 prostate
SNB-19 CNS = test system: SNB-19 CNS
HCC-2998 colon = test system: HCC-2998 colon
NCI-H522 lung = test system: NCI-H522 lung

Compound `CC(=O)NC(Cc1ccc2ccccc2c1)C(=O)NC(Cc1ccc(Cl)cc1)C(=O)NC(Cc1cccnc1)C(=O)NC(CO)C(=O)NC(Cc1ccc(O)cc1)C(=O)NC(CCCN=C(N)N)C(=O)NC(CC(C)C)C(=O)NC(CCCN=C(N)N)C(=O)N1CCCC1C(=O)NC(C)C(N)=O` (configuration not stated) (Ac-[2Nal][Phe(4-Cl)][3Pal]SYRLRPA-NH2; configuration not given here) has a TGI (BT-549 breast) of over 100 µM, a TGI (UACC-257 melanoma) of over 100 µM and a TGI (HOP-92 NSCLC) of over 100 µM. For the same compound, the TGI (NCI-H23 lung) was over 100 µM and the TGI (NCI-H226 lung) was over 100 µM.

Compound `O=C1NC(=O)c2c1c1c3ccccc3ccc1c1[nH]c3ccc(Br)cc3c21` has a GI50 (CCRF-CEM leukemia) of 1.22 µM, a TGI (CCRF-CEM leukemia) of over 100 µM and a GI50 (OVCAR-8 ovarian) of 2.33 µM. It also gave a TGI (OVCAR-8 ovarian) of over 100 µM, a GI50 (SK-MEL-5 melanoma) of 1.56 µM and a TGI (SK-MEL-5 melanoma) of 2.94 µM. The GI50 (K-562 leukemia) was 0.789 µM, the TGI (K-562 leukemia) was over 100 µM and the GI50 (MOLT-4 leukemia) was 1.19 µM. The TGI (MOLT-4 leukemia) was 4.03 µM, the GI50 (NCI/ADR-RES ovarian) was 1.53 µM and the TGI (NCI/ADR-RES ovarian) was 5.63 µM. For the same compound, the GI50 (MDA-MB-435) was 1.66 µM, the TGI (MDA-MB-435) was 3.74 µM and the GI50 (OVCAR-4 ovarian) was 1.74 µM. It also gave a TGI (OVCAR-4 ovarian) of 4.85 µM, a GI50 (NCI-H23 lung) of 1.46 µM and a TGI (NCI-H23 lung) of 4.48 µM. For the same compound, the GI50 (HL-60(TB) leukemia) was 1.75 µM, the TGI (HL-60(TB) leukemia) was 6.29 µM and the GI50 (RPMI-8226 leukemia) was 0.501 µM. It also gave a TGI (RPMI-8226 leukemia) of 2.87 µM, a GI50 (UACC-62 melanoma) of 1.91 µM and a TGI (UACC-62 melanoma) of 3.87 µM. The GI50 (TK-10 renal) was 2.45 µM and the TGI (TK-10 renal) was over 100 µM.

`O=C1C=C(N2CC2)c2ccccc2C1=O` was tested, and the GI50 (SK-MEL-2 melanoma) was 2.28 µM, the TGI (SK-MEL-2 melanoma) was 4.34 µM and the GI50 (CCRF-CEM leukemia) was 2.32 µM. For the same compound, the TGI (CCRF-CEM leukemia) was 6.23 µM, the GI50 (BT-549 breast) was 1.4 µM and the TGI (BT-549 breast) was 2.73 µM. The GI50 (786-0 renal) was 1.83 µM, the TGI (786-0 renal) was 3.28 µM and the GI50 (RXF 393 renal) was 1.64 µM. The TGI (RXF 393 renal) was 3.08 µM, the GI50 (UO-31 renal) was 1.51 µM and the TGI (UO-31 renal) was 2.87 µM. The GI50 (SK-OV-3 ovarian) was 1.92 µM, the TGI (SK-OV-3 ovarian) was 3.41 µM and the GI50 (U251 CNS) was 1.55 µM. It also gave a TGI (U251 CNS) of 3.01 µM, a GI50 (OVCAR-8 ovarian) of 1.46 µM and a TGI (OVCAR-8 ovarian) of 2.86 µM. The GI50 (SK-MEL-28 melanoma) was 1.77 µM, the TGI (SK-MEL-28 melanoma) was 3.17 µM and the GI50 (SNB-75 CNS) was 1.57 µM. It also gave a TGI (SNB-75 CNS) of 3.12 µM, a GI50 (SK-MEL-5 melanoma) of 1.6 µM and a TGI (SK-MEL-5 melanoma) of 3.04 µM. It also gave a GI50 (UACC-257 melanoma) of 1.69 µM, a TGI (UACC-257 melanoma) of 3.1 µM and a GI50 (SF-295 CNS) of 1.63 µM. For the same compound, the TGI (SF-295 CNS) was 3.12 µM, the GI50 (SN12C renal) was 1.76 µM and the TGI (SN12C renal) was 3.22 µM. The GI50 (OVCAR-5 ovarian) was 2.03 µM, the TGI (OVCAR-5 ovarian) was 3.68 µM and the GI50 (MDA-MB-231 breast) was 2.05 µM. For the same compound, the TGI (MDA-MB-231 breast) was 5.11 µM, the GI50 (M14 melanoma) was 1.63 µM and the TGI (M14 melanoma) was 3.04 µM. The GI50 (MCF7 breast) was 1.48 µM, the TGI (MCF7 breast) was 3.76 µM and the GI50 (A498 renal) was 1.36 µM. The TGI (A498 renal) was 2.84 µM, the GI50 (SF-268 CNS) was 1.79 µM and the TGI (SF-268 CNS) was 3.71 µM. For the same compound, the GI50 (K-562 leukemia) was 2.6 µM, the TGI (K-562 leukemia) was 5.66 µM and the GI50 (MOLT-4 leukemia) was 1.99 µM. For the same compound, the TGI (MOLT-4 leukemia) was 5.77 µM, the GI50 (HOP-62 NSCLC) was 1.74 µM and the TGI (HOP-62 NSCLC) was 3.13 µM. The GI50 (HOP-92 NSCLC) was 1.63 µM, the TGI (HOP-92 NSCLC) was 3.41 µM and the GI50 (SW-620 colon) was 1.34 µM. The TGI (SW-620 colon) was 2.92 µM, the GI50 (LOX IMVI melanoma) was 2.11 µM and the TGI (LOX IMVI melanoma) was 13 µM. It also gave a GI50 (T-47D breast) of 1.88 µM, a TGI (T-47D breast) of 4.17 µM and a GI50 (NCI/ADR-RES ovarian) of 1.94 µM. The TGI (NCI/ADR-RES ovarian) was 5.83 µM, the GI50 (COLO 205 colon) was 2.01 µM and the TGI (COLO 205 colon) was 3.49 µM. The GI50 (KM12 colon) was 1.78 µM, the TGI (KM12 colon) was 3.27 µM and the GI50 (MDA-MB-435) was 0.778 µM. The TGI (MDA-MB-435) was 2.23 µM, the GI50 (SR leukemia) was 1.21 µM and the TGI (SR leukemia) was 4.78 µM. For the same compound, the GI50 (OVCAR-4 ovarian) was 1.48 µM, the TGI (OVCAR-4 ovarian) was 2.8 µM and the GI50 (HCT-15 colon) was 1.85 µM. It also gave a TGI (HCT-15 colon) of 3.79 µM, a GI50 (SF-539 CNS) of 1.83 µM and a TGI (SF-539 CNS) of 3.34 µM. For the same compound, the GI50 (NCI-H23 lung) was 1.84 µM, the TGI (NCI-H23 lung) was 7.17 µM and the GI50 (HCT-116 colon) was 1.47 µM. It also gave a TGI (HCT-116 colon) of 2.9 µM, a GI50 (HT29 colon) of 2.58 µM and a TGI (HT29 colon) of 5.57 µM. The GI50 (HL-60(TB) leukemia) was 2.68 µM, the TGI (HL-60(TB) leukemia) was 6.54 µM and the GI50 (OVCAR-3 ovarian) was 1.77 µM. For the same compound, the TGI (OVCAR-3 ovarian) was 3.27 µM, the GI50 (MALME-3M melanoma) was 1.93 µM and the TGI (MALME-3M melanoma) was 3.39 µM. It also gave a GI50 (A549 NSCLC) of 2.07 µM, a TGI (A549 NSCLC) of 4.7 µM and a GI50 (NCI-H460 lung) of 1.71 µM. For the same compound, the TGI (NCI-H460 lung) was 3.89 µM, the GI50 (RPMI-8226 leukemia) was 1.81 µM and the TGI (RPMI-8226 leukemia) was 5.13 µM. The GI50 (ACHN renal) was 1.58 µM, the TGI (ACHN renal) was 2.96 µM and the GI50 (IGROV1 ovarian) was 1.79 µM. For the same compound, the TGI (IGROV1 ovarian) was 3.23 µM, the GI50 (DU-145 prostate) was 1.34 µM and the TGI (DU-145 prostate) was 2.66 µM. It also gave a GI50 (UACC-62 melanoma) of 1.79 µM, a TGI (UACC-62 melanoma) of 3.25 µM and a GI50 (SNB-19 CNS) of 1.83 µM. For the same compound, the TGI (SNB-19 CNS) was 3.35 µM, the GI50 (HCC-2998 colon) was 1.76 µM and the TGI (HCC-2998 colon) was 3.86 µM. For the same compound, the GI50 (TK-10 renal) was 2.15 µM, the TGI (TK-10 renal) was 3.64 µM and the GI50 (NCI-H522 lung) was 1.42 µM. For the same compound, the TGI (NCI-H522 lung) was 2.93 µM.
